Patent US12528795B2, “Crystal form of multi-substituted benzene ring compound maleate, and preparation method therefor and use thereof” (EVOPOINT BIOSCIENCES CO., LTD., priority 2020, dated 2026)
≈ marks a conversion by molar mass, not a printed value. Entries after “also recorded” stand apart in the source; their conditions may differ. Read-outs that look alike come from different tables or passages of the source.

Legend:
Format in all cases: physicochemical
[1] = Dynamic solubility in SGF, FaSSIF, FeSSIF and water at 37° C.; details: thermodynamic from solid, sampling at 1, 2, 4 and 24 h, time point of the value not stated
Description: (§1) The purity and solubility of the samples in the test were tested by Waters ultra performance liquid chromatograph, and the conditions are shown in Table 6:
In the test, 45 mg of the solid and 4.5 mL of the vehicle were mixed in a 5 mL centrifuge tube, then the centrifuge tube was sealed and fixed on a rotating disk at a rotating speed of 40 rpm, and the rotating disk was placed in a 37° C. incubator. Sampling was performed at four time points of 1, 2, 4 and 24 h on equilibration, followed by filtration. The filtrate was separated at each sampling time point to test the concentration and pH, and the solid was tested for crystal form.

[2] = Hygroscopicity by dynamic vapor sorption (DVS); details: for Crystal form after DVS test: XRPD after DVS 0% RH-95% RH-0% RH, 25° C.
Description: Dynamic vapor sorption (DVS) curves were acquired on a DVS Intrinsic in Surface Measurement Systems (SMS). The relative humidity at 25° C. was corrected with the deliquescence points of LiCl, Mg(NO3)2 and KCl.
After the mass change rate over time was less than 0.002%, the moisture absorption characteristics of the samples when the humidity changed from 0% RH to 95% RH were tested, as well as the moisture desorption characteristics of the samples when the humidity changed from 0% RH to 95% RH to 0% RH were tested, and the humidity change step was 10% RH. The value of the mass change rate dm/dt less than 0.002% was considered as balance equilibration, the mass change rate within 10 min less than 0.002%/min was considered as the equilibration standard during the testing process, and the maximum equilibration time was 3 h. The isothermal moisture sorption/desorption characteristics under this test condition were determined and XRPD test was performed on the samples after the DVS test.

[3] = Suspension competition experiments on crystal form A and hydrate crystal forms C and D of maleate at different water activities (XRPD); details: for Result (crystal form by XRPD after suspension competition): H2O
Description: The mixtures were stirred at room temperature for 24 h, and then filtered to obtain saturated solutions. About 10 mg of a crystal form A/C/D of maleate was added to each saturated solution, the mixtures were suspended and stirred at room temperature for 2 days, and then subjected to the XRPD test. Two 5-mL vials were taken, water (2 mL) was added to each vial, and excessive crystal form B of maleate was added. The mixtures were stirred at 50° C./80° C. for 20 h/2 h, and then filtered to obtain saturated solutions. About 10 mg of the crystal form A/C/D of maleate was added to each saturated solution, and the mixtures were suspended and stirred at 50° C./80° C. for 1 day/3.5 h, and then subjected to the XRPD test.

[4] = Crystal form transformation on heating, cooling or drying
Description: The obtained sample was determined to be a crystal form E of maleate of the multi-substituted benzene ring compound of formula II by X-ray powder diffraction.

[5] = Fluidity (angle of repose of a single API); details: D90 controlled at 200 μm
[6] = Suspension competition experiments on anhydrous crystal forms A and B of maleate (XRPD); details: for Results (crystal form by XRPD after suspension competition): 3 days
Description: Suspention competition experiments on anhydrous crystal forms A and B of maleate were conducted as follows: Four 5-mL vials were taken, IPA (2 mL) and IPAc (2 mL) were added to each vial, and excessive crystal form B of maleate was added. The mixtures were stirred at room temperature/50° C. for 24 h, and then filtered to obtain saturated solutions of the maleate in IPA and IPAc. About 10 mg of a crystal form A/B of maleate was added to each saturated solution, the mixtures were suspended and stirred at room temperature/50° C. for 3 days, and then subjected to the XRPD test.

[7] = Physical and chemical stability in open vials (HPLC purity, XRPD); details: for Crystal form change: XRPD; for Stability sample purity (area percentage): initial purity 98.86
Description: as §1
The solid samples placed under different conditions were tested for purity by HPLC to assess the chemical stability and for crystal form by XRPD to assess the physical stability.

[8] = Suspension competition experiments on crystal form A and hydrate crystal forms C and D of maleate at different water activities (XRPD); details: room temperature, 3.5 h
[9] = FaSSIF, FaSSIF, read-out: Dynamic solubility in FaSSIF
[10] = FeSSIF, FeSSIF, read-out: Dynamic solubility in FeSSIF
[11] = SGF, simulated gastric fluid, SGF, read-out: Dynamic solubility in SGF
[12] = water, water, read-out: Dynamic solubility in water
[13] = open vial, 25° C./60% RH, one week
[14] = open vial, 40° C./75% RH, one week

Compound: CCN(c1cc(O[C@H]2C[C@H](N3CCCCC3)C2)cc(C(=O)NCc2c(C)cc(C)[nH]c2=O)c1C)C1CCOCC1 [Free crystal form D]
- solubility [1, 9]: 420 µg/mL (≈ 763 µM)
- solubility [1, 10]: > 7350 µg/mL
- solubility [1, 11]: 6980 µg/mL (≈ 12700 µM)
- solubility [1, 12]: 16 µg/mL (≈ 29.1 µM)
- DVS vapor sorption (25° C./80% RH, %) [2]: 1.3%

Compound: CCN(c1cc(O[C@H]2C[C@H](N3CCCCC3)C2)cc(C(=O)NCc2c(C)cc(C)[nH]c2=O)c1C)C1CCOCC1.O=C(O)/C=C\C(=O)O [Crystal form C of maleate]
- Crystal form transformation by suspending and stirring ([3]; ethanol solution with a water activity of 0.2 or absolute ethanol, room temperature): transformed into the crystal form A
- Crystal form transformation after drying ([4]; dried at 170° C.): transformed into the crystal form A

Compound: CCN(c1cc(O[C@H]2C[C@H](N3CCCCC3)C2)cc(C(=O)NCc2c(C)cc(C)[nH]c2=O)c1C)C1CCOCC1.O=C(O)/C=C\C(=O)O [Crystal form A of maleate]
- Angle of repose of a single API [5]: about 40 °
- Angle of repose of a single API ([5]; as printed in b231): about 400
- Stability ranking among the 5 crystal forms of maleate ([3]; conclusion from the examples and suspension competition experiments): most stable among the 5 crystal forms of maleate
- Relative stability of crystal forms A and B of maleate ([6]; room temperature/50° C.): more stable than the crystal form B
- Initial purity (area percentage) ([7]; before storage): 98.86 area percentage
- Crystal form change [7, 13]: Unchanged
- Stability sample purity (area percentage) [7, 13]: 98.79 area percentage
- Crystal form change [7, 14]: Unchanged
- Stability sample purity (area percentage) [7, 14]: 98.79 area percentage
- Physical and chemical stability under three test conditions ([7]; open vial, 60° C. one day, 25° C./60% RH and 40° C./75% RH one week): did not undergo crystal form transformation and chemical purity decrease; also recorded: no crystal form transformation and chemical purity decrease
- Crystal form change ([7]; open vial, 60° C., 24 h): Unchanged
- Stability sample purity (area percentage) ([7]; open vial, 60° C., 24 h): 98.79 area percentage
- solubility [1, 9]: 4150 µg/mL
- solubility [1, 10]: > 7350 µg/mL
- solubility [1, 11]: ≥ 6000 µg/mL
- solubility [1, 12]: 6990 µg/mL
- DVS vapor sorption (25° C./80% RH, %) [2]: 0.4%
- Crystal form after DVS test [2]: Unchanged
- Crystal form after DVS test ([2]; listed as crystal form A of maleate): crystal form transformation did not occur

Compound: CCN(c1cc(O[C@H]2C[C@H](N3CCCCC3)C2)cc(C(=O)NCc2c(C)cc(C)[nH]c2=O)c1C)C1CCOCC1.O=C(O)/C=C\C(=O)O [Crystal form A/B of maleate]
- Results (crystal form by XRPD after suspension competition) ([6]; IPA, 50° C.): Crystal form A of maleate
- Results (crystal form by XRPD after suspension competition) ([6]; IPA, room temperature): Crystal form A of maleate
- Results (crystal form by XRPD after suspension competition) ([6]; IPAc, 50° C.): Crystal form A of maleate
- Results (crystal form by XRPD after suspension competition) ([6]; IPAc, room temperature): Crystal form A of maleate

Compound: CCN(c1cc(O[C@H]2C[C@H](N3CCCCC3)C2)cc(C(=O)NCc2c(C)cc(C)[nH]c2=O)c1C)C1CCOCC1.O=C(O)CCC(=O)O [Crystal form A of succinate]
- solubility [1, 9]: 5390 µg/mL
- solubility [1, 10]: > 7350 µg/mL
- solubility [1, 11]: ≥ 6000 µg/mL
- solubility [1, 12]: > 8440 µg/mL
- DVS vapor sorption (25° C./80% RH, %) [2]: 2.1%

Compound: Br.CCN(c1cc(O[C@H]2C[C@H](N3CCCCC3)C2)cc(C(=O)NCc2c(C)cc(C)[nH]c2=O)c1C)C1CCOCC1 [Crystal form A of hydrobromide]
- solubility [1, 9]: 1390 µg/mL
- solubility [1, 10]: 5330 µg/mL
- solubility [1, 12]: 4260 µg/mL
- DVS vapor sorption (25° C./80% RH, %) [2]: 5.2%

Compound: CCN(c1cc(O[C@H]2C[C@H](N3CCCCC3)C2)cc(C(=O)NCc2c(C)cc(C)[nH]c2=O)c1C)C1CCOCC1.O=C(O)/C=C\C(=O)O [Crystal form E of maleate]
- Crystal form transformation after cooling to room temperature ([4]; form obtained only at high temperature, then cooled to room temperature): retransformed into the crystal form A of maleate

Compound: CCN(c1cc(O[C@H]2C[C@H](N3CCCCC3)C2)cc(C(=O)NCc2c(C)cc(C)[nH]c2=O)c1C)C1CCOCC1.O=C(O)/C=C\C(=O)O [Crystal form A/C/D of maleate]
- Result (crystal form by XRPD after suspension competition) ([3]; 50° C., 1 day): Crystal form C of maleate
- Result (crystal form by XRPD after suspension competition) ([3]; 80° C., 3.5 h): Crystal form C of maleate
- Result (crystal form by XRPD after suspension competition) ([8]; EtOH): Crystal form A of maleate
- Result (crystal form by XRPD after suspension competition) ([8]; EtOH/H2O (70:30, aw = 0.8)): Crystal form C of maleate
- Result (crystal form by XRPD after suspension competition) ([8]; EtOH/H2O (82:18, aw = 0.6)): Crystal form C of maleate
- Result (crystal form by XRPD after suspension competition) ([8]; EtOH/H2O (91:9, aw = 0.4)): Crystal form C of maleate
- Result (crystal form by XRPD after suspension competition) ([8]; EtOH/H2O (96:4, aw = 0.2)): Crystal form A of maleate
- Result (crystal form by XRPD after suspension competition) ([8]; H2O): Crystal form C of maleate
